Experimental data published in patent US10584124B2, “Crystalline forms” (Array BioPharma Inc., priority 2017, dated 2020).
Read-outs that look alike come from different tables or passages of the source. Values belong to the compound of their own block, whether it stands above or below them.

What was measured:
[1] = Isothermic (25° C.) DVS analysis of salts of the compound of Formula I; format: physicochemical; conditions: for Mass gain by DVS: 80% relative humidity, 25° C.; for Hygroscopicity by DVS (in words): isothermic 25° C.; for Deliquescence upon removal from the DVS chamber: sample remained a free-flowing powder
Excerpt: (FIG. 16D). […] Some hysteresis was observed. […] (FIG. 16C). […] (FIG. 16D).
(FIG. 18A). […] (FIG. 18B). […] Some hysteresis was observed. […] An overlay of FTIR spectra of the L- and D-malic acid salts is shown in FIG. 18F. ^1H NMR spectra of the L- and D-malic salts in DMSO-d^6 are shown in FIG. 18G-18H, respectively.

[2] = Solubility test of the D-malic acid salt (room temperature, 60° C., 70° C.); format: physicochemical; conditions: for Solids dissolve at 70° C.?: 70° C. for approximately 3.0 hours
[3] = Stability screening of freebase and selected salts of Formula I, 40° C. and 75% RH, weekly HPLC over 4 weeks; conditions: for Absolute % change: 40° C. and 75% RH, T = 0 to 4 weeks; for Stability, HPLC analysis, T = 1 week / Stability, HPLC analysis, T = 2 weeks / Stability, HPLC analysis, T = 3 weeks / Stability, HPLC analysis, T = 4 weeks / Stability, HPLC analysis, T = 0: stored at 40° C. and 75% RH
[4] = GVS hygroscopicity; format: physicochemical
Excerpt: The instruments and methods of analysis used in the polymorph screens described in Examples 5 are described in Example 4, above.

[5] = Solubility screening of the compound of Formula IV (freebase) in solvent mixtures; format: physicochemical; conditions: approximately 25° C.

SMILES: COc1ccc(CN2CCN(c3ccc(-c4cc(-c5cnn(C)c5)cn5ncc(C#N)c45)cn3)CC2)cn1.O=C(O)C[C@@H](O)C(=O)O [D-malic acid salt]
- Mass gain by DVS [1]: approximately 2.8%
- Hygroscopicity by DVS (in words) [1]: hygroscopic
- Deliquescence upon removal from the DVS chamber [1]: no observable deliquescence
- Solids dissolve at 60° C.? ([2]; 60° C. for 3.0 hours, solvent 0.1M HCl, Yes): Yes (>15 mg/mL)
- Solids dissolve at 60° C.? ([2]; 60° C. for 3.0 hours, solvent 2-methyl THF): No
- Solids dissolve at 60° C.? ([2]; 60° C. for 3.0 hours, solvent ACN): No
- Solids dissolve at 60° C.? ([2]; 60° C. for 3.0 hours, solvent Acetone): No
- Solids dissolve at 60° C.? ([2]; 60° C. for 3.0 hours, solvent DCE): No
- Solids dissolve at 60° C.? ([2]; 60° C. for 3.0 hours, solvent DMSO, Yes): Yes (>40 mg/mL)
- Solids dissolve at 60° C.? ([2]; 60° C. for 3.0 hours, solvent EtOAc): No
- Solids dissolve at 60° C.? ([2]; 60° C. for 3.0 hours, solvent EtOH): No
- Solids dissolve at 60° C.? ([2]; 60° C. for 3.0 hours, solvent IPA): No
- Solids dissolve at 60° C.? ([2]; 60° C. for 3.0 hours, solvent MEK): No
- Solids dissolve at 60° C.? ([2]; 60° C. for 3.0 hours, solvent MTBE): No
- Solids dissolve at 60° C.? ([2]; 60° C. for 3.0 hours, solvent MeOH): No
- Solids dissolve at 60° C.? ([2]; 60° C. for 3.0 hours, solvent Toluene): No
- Solids dissolve at 60° C.? ([2]; 60° C. for 3.0 hours, solvent iPAc): No
- Solids dissolve at 60° C.? ([2]; 60° C. for 3.0 hours, solvent water): No
- Solids dissolve at 70° C.? ([2]; solvent 2-methyl THF): No
- Solids dissolve at 70° C.? ([2]; solvent ACN): No
- Solids dissolve at 70° C.? ([2]; solvent DCE): No
- Solids dissolve at 70° C.? ([2]; solvent DMSO, Yes): Yes (>56 mg/mL)
- Solids dissolve at 70° C.? ([2]; solvent EtOAc): No
- Solids dissolve at 70° C.? ([2]; solvent EtOH): No
- Solids dissolve at 70° C.? ([2]; solvent IPA): No
- Solids dissolve at 70° C.? ([2]; solvent MEK): No
- Solids dissolve at 70° C.? ([2]; solvent MTBE): No
- Solids dissolve at 70° C.? ([2]; solvent Toluene): No
- Solids dissolve at 70° C.? ([2]; solvent iPAc): No
- Solids dissolve at 70° C.? ([2]; solvent water): No
- Solids dissolve at 60° C.? ([2]; solvent THF, cell says At 65° C.): ~10 mg/mL
- Absolute % change [3]: 0.6%
- Stability, HPLC analysis, T = 1 week [3]: 97.6%
- Stability, HPLC analysis, T = 2 weeks [3]: 97.4%
- Stability, HPLC analysis, T = 3 weeks [3]: 97.2%
- Stability, HPLC analysis, T = 4 weeks [3]: 97.1%
- Stability, HPLC analysis, T = 0 [3]: 97.7%

SMILES: COc1ccc(CN2C3CC2CN(c2ccc(-c4cc(OCC(C)(C)O)cn5ncc(C#N)c45)cn2)C3)cn1 [Form 1]
- Hygroscopicity by GVS (in words) [4]: moderately hygroscopic
- Weight increase by GVS ([4]; at 90% RH): 2.6%

SMILES: COc1ccc(CN2CCN(c3ccc(-c4cc(-c5cnn(C)c5)cn5ncc(C#N)c45)cn3)CC2)cn1.Cl [HCl salt]
- Mass gain by DVS [1]: approximately 5%
- Hygroscopicity by DVS (in words) [1]: hygroscopic
- Deliquescence upon removal from the DVS chamber [1]: no observable deliquescence
- Absolute % change [3]: 0.0%
- Stability, HPLC analysis, T = 1 week [3]: 99.3%
- Stability, HPLC analysis, T = 2 weeks [3]: 99.3%
- Stability, HPLC analysis, T = 3 weeks [3]: 99.3%
- Stability, HPLC analysis, T = 4 weeks [3]: 99.3%
- Stability, HPLC analysis, T = 0 [3]: 99.3%

- solubility ([5]; Water): 0.007 mg/mL
- solubility ([5]; aqueous with cosolvent or surfactant or cyclodextrin, Acetone:water (1:1)): 45.8 mg/mL
- solubility ([5]; aqueous with cosolvent or surfactant or cyclodextrin, EtOH:water (1:1)): 51 mg/mL
- solubility ([5]; organic solvent or mixture, ACN): 21.2 mg/mL
- solubility ([5]; organic solvent or mixture, Acetone): 42.9 mg/mL
- solubility ([5]; organic solvent or mixture, Acetone:heptane (1:1)): 6.1 mg/mL
- solubility ([5]; organic solvent or mixture, Butanol): 16.6 mg/mL
- solubility ([5]; organic solvent or mixture, Chloroform): > 59 mg/mL
- solubility ([5]; organic solvent or mixture, Chloroform:heptane (1:1)): 11.7 mg/mL
- solubility ([5]; organic solvent or mixture, DCM): > 70 mg/mL
- solubility ([5]; organic solvent or mixture, EtOH:water (90:10)): 55 mg/mL
- solubility ([5]; organic solvent or mixture, Ethanol): 5.2 mg/mL
- solubility ([5]; organic solvent or mixture, Ethyl acetate): 21 mg/mL
- solubility ([5]; organic solvent or mixture, IPA): 7 mg/mL
- solubility ([5]; organic solvent or mixture, MEK): 30.7 mg/mL
- solubility ([5]; organic solvent or mixture, MTBE): 5.5 mg/mL
- solubility ([5]; organic solvent or mixture, Methanol): > 74 mg/mL
- solubility ([5]; organic solvent or mixture, THF): > 37 mg/mL
- solubility ([5]; organic solvent or mixture, THF:heptane (30:70)): 0.6 mg/mL
- solubility ([5]; organic solvent or mixture, p-dioxane): > 62 mg/mL
SMILES: CC(C)(O)COc1cc(-c2ccc(N3CCC(O)(Cc4ccccn4)CC3)nc2)c2c(C#N)cnn2c1 [compound of Formula IV, 6-(2-hydroxy-2-methylpropoxy)-4-(6-(4-hydroxy-4-(pyridin-2-ylmethyl)piperidin-1-yl)pyridin-3-yl)pyrazolo[1,5-a]pyridine-3-carbonitrile]

SMILES: COc1ccc(CN2C3CC2CN(c2ccc(-c4cc(OCC(C)(C)O)cn5ncc(C#N)c45)cn2)C3)cn1.O=P(O)(O)O [phosphate salt]
- Hygroscopicity by GVS (in words) [4]: highly hygroscopic
- Weight increase by GVS [4]: approximately 14%
- Form and crystallinity by XRPD after 7-day stability tests (ambient temperature and light, 40° C./75% RH, 80° C.): no change in form or crystallinity
- Purity after 7-day stability storage (stored 7 days at 40° C./75% RH): 97.44%
- Purity after 7-day stability storage (stored 7 days at 80° C.): 64.96%
- Purity after 7-day stability storage (stored 7 days at RT (ambient temperature and light)): 98.03%
